Tests used:
HT-29 = experiment: cells; conditions: Homo sapiens, HT-29, 48 h; for GI50: read-out: HT29 GI50; for CC50: read-out: HT29 LC50; for IC (TGI): read-out: HT29 TGI
In short: (§1)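 Colorimetric SRB read (490 nm) on triplicate wells after 48 h at 37 °C, 5% CO2. Dose range 10 to 10^−8 μg/ml; 5×10^3 cells/well pre-attached 18 h.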

LoVo = experiment: cells; conditions: Homo sapiens, LoVo, 48 h; for GI50: read-out: LOVO GI50; for CC50: read-out: LOVO LC50; for IC (TGI): read-out: LOVO TGI
In short: as §1

A-549 = experiment: cells; conditions: Homo sapiens, A549, 48 h; for GI50: read-out: A549 GI50; for CC50: read-out: A549 LC50; for IC (TGI): read-out: A549 TGI
In short: as §1

IGROV-1 = experiment: Inhibition of cells growth by colorimetric assay (SRB); conditions: Homo sapiens, IGROV-1, 48 h; for GI50: read-out: IGROV GI50; for CC50: read-out: IGROV LC50; for IC (TGI): read-out: IGROV TGI
In short: as §1

LoVo-Dox = experiment: as above; conditions: Homo sapiens, 48 h; for GI50: read-out: LOVO-DOX GI50; for CC50: read-out: LOVO-DOX LC50; for IC (TGI): read-out: LOVO-DOX TGI
In short: as §1

DU-145 = experiment: as above; conditions: Homo sapiens, DU-145, 48 h; for GI50: read-out: DU145 GI50; for CC50: read-out: DU145 LC50; for IC (TGI): read-out: DU145 TGI
In short: as §1

PANC-1 = experiment: as above; conditions: Homo sapiens, PANC-1, 48 h; for GI50: read-out: PANC-1 GI50; for CC50: read-out: PANC-1 LC50; for IC (TGI): read-out: PANC-1 TGI
In short: as §1

HeLa-APL = experiment: as above; conditions: Homo sapiens, 48 h; for GI50: read-out: HELA-APL GI50; for CC50: read-out: HELA-APL LC50; for IC (TGI): read-out: HELA-APL TGI
In short: as §1

HeLa = experiment: as above; conditions: Homo sapiens, HeLa, 48 h; for GI50: read-out: HELA GI50; for CC50: read-out: HELA LC50; for IC (TGI): read-out: HELA TGI
In short: as §1

SK-BR-3 = experiment: as above; conditions: Homo sapiens, SK-BR-3, 48 h; for GI50: read-out: SK-BR3 GI50; for CC50: read-out: SK-BR3 LC50; for IC (TGI): read-out: SK-BR3 TGI
In short: as §1

LNCaP = experiment: as above; conditions: Homo sapiens, LNCaP, 48 h; for GI50: read-out: LNCAP GI50; for CC50: read-out: LNCAP LC50; for IC (TGI): read-out: LNCAP TGI
In short: as §1

K-562 = experiment: as above; conditions: Homo sapiens, K562, 48 h; for GI50: read-out: K562 GI50; for CC50: read-out: K562 LC50; for IC (TGI): read-out: K562 TGI
In short: as §1

IGROV-ET = experiment: as above; conditions: Homo sapiens, 48 h; for GI50: read-out: IGROV-ET GI50; for CC50: read-out: IGROV-ET LC50; for IC (TGI): read-out: IGROV-ET TGI
In short: as §1

SK-MEL-28 = experiment: as above; conditions: Homo sapiens, SK-MEL-28, 48 h; for GI50: read-out: MEL-28 GI50; for CC50: read-out: MEL-28 LC50; for IC (TGI): read-out: MEL-28 TGI
In short: as §1

SMILES: COc1ccc2[nH]c3c(c2c1)CCN[C@]31CS[C@@H]2c3c(OC(C)=O)c(C)c4c(c3[C@H](COC1=O)N1C2[C@@H]2N[C@@H](Cc3cc(C)c(OC)c(O)c32)[C@@H]1C#N)OCO4 (stereo partly drawn) [compound 60]
- GI50 (HT-29): 2.28 nM
- CC50 (HT-29): 12.8 µM
- IC (TGI) (HT-29): 0.0131 µM
- GI50 (LoVo): 3.27 nM
- CC50 (LoVo): 2900 nM
- IC (TGI) (LoVo): 0.00823 µM
- GI50 (A-549): 3.6 nM
- CC50 (A-549): 76 nM
- IC (TGI) (A-549): 0.0131 µM
- GI50 (IGROV-1): 1.38 nM
- CC50 (IGROV-1): 11.8 nM
- IC (TGI) (IGROV-1): 4.03 nM
- GI50 (LoVo-Dox): 163 nM
- CC50 (LoVo-Dox): 12.8 µM
- IC (TGI) (LoVo-Dox): 0.757 µM
- GI50 (DU-145): 1.8 nM
- CC50 (DU-145): 7.13 µM
- IC (TGI) (DU-145): 1.36 µM
- GI50 (PANC-1): 3.31 nM
- CC50 (PANC-1): 12.8 µM
- IC (TGI) (PANC-1): 0.0119 µM
- GI50 (HeLa-APL): 1.37 nM
- CC50 (HeLa-APL): 9.27 nM
- IC (TGI) (HeLa-APL): 3.58 nM
- GI50 (HeLa): 1.03 nM
- CC50 (HeLa): 12.8 nM
- IC (TGI) (HeLa): 3.41 nM
- GI50 (SK-BR-3): 0.431 nM
- CC50 (SK-BR-3): 42.2 nM
- IC (TGI) (SK-BR-3): 1.22 nM
- GI50 (LNCaP): 0.415 nM
- CC50 (LNCaP): 5.03 nM
- IC (TGI) (LNCaP): 1.42 nM
- GI50 (K-562): 0.809 nM
- CC50 (K-562): 8.57 µM
- IC (TGI) (K-562): 0.0132 µM
- GI50 (IGROV-ET): 20.9 nM
- CC50 (IGROV-ET): 2890 nM
- IC (TGI) (IGROV-ET): 0.0531 µM
- GI50 (SK-MEL-28): 1.91 nM
- CC50 (SK-MEL-28): 9.55 nM
- IC (TGI) (SK-MEL-28): 4.27 nM

SMILES: COc1c(C)cc2c(c1O)[C@H]1N[C@@H](C2)[C@H](C#N)N2C1[C@@H]1SC[C@]3(NCCc4c3[nH]c3ccc(O)cc43)C(=O)OC[C@H]2c2c3c(c(C)c(OC(C)=O)c21)OCO3 (stereo partly drawn) [compound 61]
- GI50 (HT-29): 6.58 nM
- CC50 (HT-29): 13.1 µM
- IC (TGI) (HT-29): 1.4 µM
- GI50 (LoVo): 17.1 nM
- CC50 (LoVo): 8230 nM
- IC (TGI) (LoVo): 0.0709 µM
- GI50 (A-549): 24.3 nM
- CC50 (A-549): 104 nM
- IC (TGI) (A-549): 0.0501 µM
- GI50 (IGROV-1): 4.82 nM
- CC50 (IGROV-1): 525 nM
- IC (TGI) (IGROV-1): 9.64 nM
- GI50 (LoVo-Dox): 495 nM
- CC50 (LoVo-Dox): 13.1 µM
- IC (TGI) (LoVo-Dox): 1.76 µM
- GI50 (DU-145): 5.14 nM
- CC50 (DU-145): 7.97 µM
- IC (TGI) (DU-145): 0.00934 µM
- GI50 (PANC-1): 4.69 nM
- CC50 (PANC-1): 13.1 µM
- IC (TGI) (PANC-1): 0.0154 µM
- GI50 (HeLa-APL): 2.98 nM
- CC50 (HeLa-APL): 10.5 nM
- IC (TGI) (HeLa-APL): 5.6 nM
- GI50 (HeLa): 3.56 nM
- CC50 (HeLa): 11.8 nM
- IC (TGI) (HeLa): 6.49 nM
- GI50 (SK-BR-3): 4.28 nM
- CC50 (SK-BR-3): 245 nM
- IC (TGI) (SK-BR-3): 9 nM
- GI50 (LNCaP): 1.17 nM
- CC50 (LNCaP): 6.92 nM
- IC (TGI) (LNCaP): 2.94 nM
- GI50 (K-562): 2.56 nM
- CC50 (K-562): 0.642 µM
- IC (TGI) (K-562): 0.00862 µM
- GI50 (IGROV-ET): 225 nM
- CC50 (IGROV-ET): 4770 nM
- IC (TGI) (IGROV-ET): 0.712 µM
- GI50 (SK-MEL-28): 6.19 nM
- CC50 (SK-MEL-28): 60.7 nM
- IC (TGI) (SK-MEL-28): 18.8 nM

SMILES: COc1c(C)cc2c(c1O)[C@H]1N[C@@H](C2)[C@H](C#N)N2C1[C@@H]1SC[C@]3(NCCc4c3[nH]c3ccc(C)cc43)C(=O)OC[C@H]2c2c3c(c(C)c(OC(C)=O)c21)OCO3 (stereo partly drawn) [compound 62]
- GI50 (HT-29): 4.03 nM
- CC50 (HT-29): 12.5 µM
- IC (TGI) (HT-29): 0.283 µM
- GI50 (LoVo): 5.03 nM
- CC50 (LoVo): 1540 nM
- IC (TGI) (LoVo): 0.0179 µM
- GI50 (A-549): 4.56 nM
- CC50 (A-549): 334 nM
- IC (TGI) (A-549): 0.0165 µM
- GI50 (IGROV-1): 2.59 nM
- CC50 (IGROV-1): 3900 nM
- IC (TGI) (IGROV-1): 6.55 nM
- GI50 (LoVo-Dox): 136 nM
- CC50 (LoVo-Dox): 13.1 µM
- IC (TGI) (LoVo-Dox): 0.558 µM
- GI50 (DU-145): 3.3 nM
- CC50 (DU-145): 3.59 µM
- IC (TGI) (DU-145): 0.0104 µM
- GI50 (PANC-1): 3.86 nM
- CC50 (PANC-1): 4.75 µM
- IC (TGI) (PANC-1): 0.0135 µM
- GI50 (HeLa-APL): 2.3 nM
- CC50 (HeLa-APL): 10.3 nM
- IC (TGI) (HeLa-APL): 4.88 nM
- GI50 (HeLa): 2.37 nM
- CC50 (HeLa): 11 nM
- IC (TGI) (HeLa): 5.11 nM
- GI50 (SK-BR-3): 1.01 nM
- CC50 (SK-BR-3): 103 nM
- IC (TGI) (SK-BR-3): 4.74 nM
- GI50 (LNCaP): 3.01 nM
- CC50 (LNCaP): 8.4 nM
- IC (TGI) (LNCaP): 5.03 nM
- GI50 (K-562): 1.94 nM
- CC50 (K-562): 6.02 µM
- IC (TGI) (K-562): 0.011 µM
- GI50 (IGROV-ET): 26.6 nM
- CC50 (IGROV-ET): 2920 nM
- IC (TGI) (IGROV-ET): 0.0695 µM
- GI50 (SK-MEL-28): 2.46 nM
- CC50 (SK-MEL-28): 9.78 nM
- IC (TGI) (SK-MEL-28): 4.92 nM

Reference: patent publication US7767659B2, “Synthesis of naturally occurring ecteinascidins and related compounds” (Pharma Mar, S.A., priority 2002, dated 2010)
